Experimental data: ChEMBL document CHEMBL5728196, “Phenylate derivative, preparation method therefor, and pharmaceutical composition and uses thereof” (2021)

Biological target: Programmed cell death protein 1/Programmed cell death 1 ligand 1 (Homo sapiens, UniProt Q15116+Q9NZQ7)
Test: Inhibitory Activity Assay: 1. In vitro activity evaluation: Cisbio PD-1/PD-L1 binding assay kit was applied for the detection method of in vitro enzymology level.Screening Principles and Methods of PD-1/PD-L1 Small Molecule Inhibitors1) Principle: PD-1 protein is with HIS tag, and PD-1 ligand PD-L1 is with hFc tag. Eu labeled anti-hFc antibody and XL665 labeled anti-HIS antibody are combined with the above two label proteins respectively. After laser excitation, energy can be transferred from donor Eu to receptor XL665, allowing XL665 to glow. […] Reagents should be dispensed in the following order. For 384-well white ELISA plate, 2 μl of diluent or target compound diluted with diluent was added to each well, and then 4 μl of PD-1 protein and 4 μl of PD-L1 protein were added per well, incubated for 15 min at room temperature; and 10 μl of a mixture of anti-Tag1-Eu3+ and anti-Tag2-XL665 was added per well and incubated for 1 h to 4 h at room temperature and the fluorescence signals at 665 nm and 620 nm were measured with an Envison instrument. HTRF rate=(665 nm/620 nm)*104. 8-10 concentrations were detected for each compound and IC50 was calculated by Graphpad software.
Assay type: protein-complex assay

Sequence of Programmed cell death protein 1/Programmed cell death 1 ligand 1 (Q15116 whole entry): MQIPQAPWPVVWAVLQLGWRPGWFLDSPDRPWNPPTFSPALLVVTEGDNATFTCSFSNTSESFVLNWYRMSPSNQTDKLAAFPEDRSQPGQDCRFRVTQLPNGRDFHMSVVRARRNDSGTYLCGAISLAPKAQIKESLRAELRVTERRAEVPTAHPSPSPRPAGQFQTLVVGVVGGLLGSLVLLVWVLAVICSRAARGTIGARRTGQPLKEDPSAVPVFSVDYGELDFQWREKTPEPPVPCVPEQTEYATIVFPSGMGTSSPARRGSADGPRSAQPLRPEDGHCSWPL
Sequence of Programmed cell death protein 1/Programmed cell death 1 ligand 1 (Q9NZQ7 whole entry): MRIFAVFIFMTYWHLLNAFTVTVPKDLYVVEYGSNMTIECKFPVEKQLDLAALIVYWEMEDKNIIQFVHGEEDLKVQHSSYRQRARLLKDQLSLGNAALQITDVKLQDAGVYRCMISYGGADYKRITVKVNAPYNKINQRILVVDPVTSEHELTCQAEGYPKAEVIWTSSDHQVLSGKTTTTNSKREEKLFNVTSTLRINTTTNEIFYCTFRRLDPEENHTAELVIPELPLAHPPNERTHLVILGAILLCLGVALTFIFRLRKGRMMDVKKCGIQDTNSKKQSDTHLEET

NC(=O)COc1cc(OCc2cccc(-c3ccc4c(c3)OCCO4)c2Br)c(Cl)cc1CN1C[C@@H](O)C[C@H]1C(=O)O
IC50: 182 nM
